Reference: patent publication US7625711B2, “Screening method for the identification of a drug for the development of an agent for prevention and/or treatment of Alzheimer's disease” (Hisamitsu Pharmaceutical Co., Inc., priority 2003, dated 2009)

Assays:
Format in all cases: cell-based, human
[1] = test system: SH-SY5Y cells; test: Cell viability assay (MTT method) after cisplatin treatment; details: SH-SY5Y cells treated with cisplatin, FIG. 14
Method: SH-SY5Y cells, which are a neuroblastoma cell line, are used as tumor cells. SH-SY5Y cells are treated with cisplatin, and then the cell viability is measured by the MTT method. FIG. 14 is a graph showing the relationship between the amount of cisplatin and the cell viability of SH-SY5Y cells. The cell viability was determined by a modified 3-(4,5-dimethylthiazol-2-yl)-2,5-diphenyltetrazolium bromide (MTT) assay. Specifically, […] cells were plated on 100 μl of complete medium in a 96-well micro titer plate (5×10^3 cells/well), and made to adhere thereto. On the next day, the medium was changed, and the cells were treated with cisplatin for 24 hours. In the MTT assay, 10 μl of MTT solution was added to each well, and incubated at 37° C. for 3 hours. The absorbance of the wells at 570 nm was measured using a microplate reader (Type 450, Bio-Rad Laboratories).

[2] = test system: p53; test: Immunoblotting of cisplatin-treated SH-SY5Y cells with anti-p53 antibody; details: FIG. 15
Method: (§1) Next, products obtained by cisplatin treatment of SH-SY5Y cells are analyzed by immunoblotting and immunoprecipitation. Specifically, SH-SY5Y cells are treated with cisplatin, and then the expression levels of p53, p21, βAPP and actin are analyzed by immunoblotting. Moreover, an interaction between a βAPP-derived product and p53 is analyzed by immunoprecipitation and immunoblotting. FIG. 15 is diagrams showing the result of immunoblotting analysis of products obtained by cisplatin treatment of SH-SY5Y cells. In the figure, “IP” means immunoprecipitation, and “IB” means immunoblotting. The second diagram from the top in FIG. 15 is a diagram showing the result of immunoblotting analysis using anti-p53 antibody. […] The third diagram from the top in FIG. 15 is a diagram showing the result of immunoblotting analysis using anti-p21 antibody. […] The uppermost diagram in FIG. 15 is a diagram showing the result of immunoprecipitation of a cell lysate (homogenate) using anti-βAPP antibody, and immunoblotting analysis of the immunoprecipitate using anti-p53 antibody. […] Since βAPP is present on the membrane and p53 is present in the nucleus, it is unlikely that there is physical binding therebetween.

[3] = test system: p21; test: Immunoblotting of cisplatin-treated SH-SY5Y cells with anti-p21 antibody; details: FIG. 15
Method: as §1

[4] = test system: βAPP-derived product and p53; test: Immunoprecipitation with anti-βAPP antibody and immunoblotting with anti-p53 antibody of cisplatin-treated SH-SY5Y cells; details: SH-SY5Y cell lysate, IP anti-βAPP, IB anti-p53, FIG. 15
Method: as §1

N.N.[Cl][Pt][Cl] [cisplatin]
cell viability of SH-SY5Y cells [1]: the number of SH-SY5Y cells decreases depending on the dosage of cisplatin | induction of endogenous p53 [2]: the induction of endogenous p53 by cisplatin can be seen | expression of p21 [3]: p53 expressed during the cisplatin treatment promotes the expression of p21 | physical binding between a βAPP-derived product and p53 [4]: p53 is present in the cisplatin treatment group
